Each block holds one molecule with its values, some of them ahead of it.
What was measured:
[1] = system: COS Cell; experiment: COS Cell IC50 (Cell-Based Assay, per WO 95/10516)
Description: (§1) FPT IC50 (inhibition of farnesyl protein transferase, in vitro enzyme assay) was determined following the assay procedures described in WO 95/10516, published Apr. 20, 1995. GGPT IC50 (inhibition of geranylgeranyl protein transferase, in vitro enzyme assay), COS Cell IC50 (Cell-Based Assay), Cell Mat Assay, and anti-tumor activity (in vivo anti-tumor studies) could be determined by the assay procedures described in WO 95/10516. The disclosure of WO 95/10516 is incorporated herein by reference thereto.

[2] = system: Human tumor cells; experiment: Soft Agar Assay (anchorage-independent growth); assay type: cell-based
Description: Anchorage-independent growth is a characteristic of tumorigenic cell lines. Human tumor cells can be suspended in growth medium containing 0.3% agarose and an indicated concentration of a farnesyl transferase inhibitor. The solution can be overlayed onto growth medium solidified with 0.6% agarose containing the same concentration of farnesyl transferase inhibitor as the top layer. After the top layer is solidified, plates can be incubated for 10-16 days at 37° C. under 5% CO2 to allow colony outgrowth. After incubation, the colonies can be stained by overlaying the agar with a solution of MTT (3-[4,5-dimethyl-thiazol-2-yl]-2,5-diphenyltetrazolium bromide, Thiazolyl blue) (1 mg/mL in PBS). Colonies can be counted and the IC50's can be determined.

[3] = biological target: farnesyl protein transferase (Homo sapiens, UniProt P49354+P49356); experiment: FPT IC50 (inhibition of farnesyl protein transferase, in vitro enzyme assay, per WO 95/10516); assay type: biochemical; conditions: for IC50: in vitro enzyme assay
Description: as §1

[4] = biological target: T1, human FPT (Homo sapiens, UniProt P49354+P49356); experiment: FPT pM IC50 Assay; assay type: biochemical; conditions: 30 pM human FPT, biotin-CVLS substrate, 37° C., 1 hour
T1 construct: made in house; host or cells: Baculovirus/Sf-9
Description: The enzymatic reaction is performed in 50 mM Tris, 5 μM ZnCl2, 5 mM MgCl2, 0.01% Triton X-100, 5 mM dithiolthreitol (DTT), pH 7.7 (Buffer R) at 37° C. for 1 hour. The purified human FPT (>95% pure) was derived from a Baculovirus/Sf-9 expression system. The peptide substrate used was biotin-CVLS (SynPep Corp., Dublin, Calif.) and (1-^3H)-FPP (21.5 Ci/mmol) was obtained from New England Nuclear Life Science Products (Boston, Mass.). Compounds were initially dissolved to a final concentration of 4 mg/ml in 100% DMSO and then to 0.25 μg/ml in 100% DMSO. Subsequent dilutions of the compound were performed in Buffer R.
The enzymatic reaction is performed in a final volume of 100 μl. Reactions are carried out in a 96 well plate format. […] The reaction is stopped using 150 μl of the Stop Solution consisting of 1.3 mg/ml scintillation beads (strepavidin-coated scintillation proximity beads from Amersham (Arlington Heights, Ill.), 250 mM EDTA, pH 8.0 and 0.5% BSA. The radioactivity is measured after 20 minutes at room temperature.
Compounds are evaluated for their ability to inhibit the reaction by measuring the concentration-dependent percent inhibition of the reaction. […] The enzymatic activity was recorded by measuring the CPM/well using a Wallac 1204 Betaplate BS liquid scintillation counter. […]

Chain of farnesyl protein transferase (P49356 whole entry, one chain of several): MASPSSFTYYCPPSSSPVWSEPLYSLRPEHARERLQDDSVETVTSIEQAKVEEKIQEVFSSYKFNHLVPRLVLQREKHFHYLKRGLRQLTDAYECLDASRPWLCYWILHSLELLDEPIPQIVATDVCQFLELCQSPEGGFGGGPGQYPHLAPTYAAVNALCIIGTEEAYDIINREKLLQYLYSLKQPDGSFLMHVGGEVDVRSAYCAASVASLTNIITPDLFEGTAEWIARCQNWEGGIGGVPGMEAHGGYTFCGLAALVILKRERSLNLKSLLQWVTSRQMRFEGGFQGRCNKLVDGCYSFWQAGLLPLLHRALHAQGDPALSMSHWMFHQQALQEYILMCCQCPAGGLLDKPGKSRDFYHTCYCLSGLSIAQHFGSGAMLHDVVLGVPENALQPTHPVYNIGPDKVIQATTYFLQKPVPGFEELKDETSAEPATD

FPT percent inhibition ([3]; @ 160 (concentration unit not given)): 24% @ 160
SMILES: NC(=O)N1CCC(CC(=O)N2CCN([C@H]3c4ccc(Cl)cc4CCc4cc(Br)c[n+]([O-])c43)CC2)CC1 [Example 11, (−) 4-[2-[(3-Bromo-8-chloro-6,11-dihydro-5H-benzo[5,6]cyclo-hepta [1,2-b]pyridin-11S-yl)-1-piperazinyl]-2-oxoethyl]-1-piperidinecarboxamide N1-oxide]

IC50 [3]: 12 nM
SMILES: NC(=O)N1CCC(CC(=O)N2CCN([C@@H]3c4ccc(Cl)cc4CCc4cc(Br)c[n+]([O-])c43)CC2)CC1 [Example 10, (+) 4-[2-[(3-Bromo-8-chloro-6,11-dihydro-5H-benzo[5,6]cyclo-hepta [1,2-b]pyridin-11R-yl)-1-piperazinyl]-2-oxoethyl]-1-piperidinecarboxamide N1-oxide]

melting point: 120 to 121 °C
IC50 [3]: 174 nM
SMILES: NC(=O)N1CCC(CC(=O)N2CCC([C@H]3c4ccc(Cl)cc4CCc4cc(Br)c[n+]([O-])c43)CC2)CC1 [Example 13]

IC50 [2]: 45 nM
IC50 [3]: 1.4 nM
SMILES: NC(=O)N1CCC(CC(=O)N2CCC([C@@H]3c4c(Br)cc(Cl)cc4CCc4cc(Br)c[n+]([O-])c43)CC2)CC1 [Example 2, (+)-4-[2-[4-(3,10-Dibromo-8-chloro-6,11-dihydro-5H-benzo [5,6]cyclohepta[1,2-b]pyridin-11(R)-YL)-1-piperidinyl]-2-oxoethyl]-1-piperidinecarboxamide N-oxide]
IC50 [1]: 9 nM

IC50 [3]: 18 nM
SMILES: NC(=O)N1CCC(CC(=O)N2CCC([C@H]3c4ccc(Cl)c(Br)c4CCc4cc(Br)c[n+]([O-])c43)CC2)CC1 [Example 4]

FPT percent inhibition ([3]; @150 nM): 42%
SMILES: NC(=O)N1CCC(CC(=O)N2CCC(C3c4c(Br)cc(Cl)cc4CCc4cc(Br)c[n+]([O-])c43)CC2)CC1 (centres unmarked) [Compound 54.0]

IC50 [3]: 23 nM
SMILES: NC(=O)N1CCC(CC(=O)N2CCN(C3c4ccc(Cl)cc4CCc4cc(Br)c[n+]([O-])c43)CC2)CC1 (racemic) [Example 9, (±) 4-[2-[(3-Bromo-8-chloro-6,11-dihydro-5H-benzo[5,6]cyclohepta [1,2-b]pyridin-11-yl)-1-piperazinyl]-2-oxoethyl]-1-piperidinecarboxamide N1-oxide]

melting point: 146.8 to 147.4 °C
IC50 [3]: 35 nM
SMILES: NC(=O)N1CCC(CC(=O)N2CCC([C@@H]3c4ccc(Cl)cc4CCc4cc(Br)c[n+]([O-])c43)CC2)CC1 [Example 12]

Continued, molecule first:

SMILES: O=C(Cc1cc[n+]([O-])cc1)N1CCN([C@@H]2c3ccc(Cl)cc3CCc3cc(Br)c[n+]([O-])c32)CC1 [Example 7]
IC50 [1]: 85 nM
IC50 [2]: 183 nM
IC50 [3]: 6.3 nM
IC50 [4]: 440 pM

SMILES: O=C(Cc1cc[n+]([O-])cc1)N1CCC([C@H]2c3ccc(Cl)c(Br)c3CCc3cc(Br)c[n+]([O-])c32)CC1 [Example 5, (−)-4-(8-Chloro-3,7-Dibromo-6,11-Dihydro-5H-Benzo[5,6]Cyclohepta [1,2-b]Pyridin-11-yl)-1-(4-Pyridinylacetyl)Piperidine N1-Oxide, N4-Oxide]
IC50 [3]: 28 nM

SMILES: O=C(Cc1cc[n+]([O-])cc1)N1CCC([C@@H]2c3c(Br)cc(Cl)cc3CCc3cc(Br)c[n+]([O-])c32)CC1 [Example 3]
IC50 [1]: 11.5 nM
IC50 [2]: 25 nM
IC50 [3]: 0.7 nM

SMILES: O=C(Cc1cc[n+]([O-])cc1)N1CCC([C@@H]2c3ccc(Cl)cc3C=Cc3cc(Br)c[n+]([O-])c32)CC1 [Example 15]
melting point: 125.5 to 126.3 °C
IC50 [3]: 19 nM

SMILES: O=C(Cc1cc[n+]([O-])cc1)N1CCC(C2c3ccc(Cl)cc3C=Cc3cc(Br)c[n+]([O-])c32)CC1 (centres unmarked) [Example 6, 4-(3-Bromo-8-Chloro-11H-Benzo[5.6]Cyclohepta[1,2-b]Pyridi-11-yl) -1-(4-Pyridinylacetyl)Piperidine N1-Oxide, N4-Oxide]
IC50 [3]: 63 nM

SMILES: O=C(Cc1cc[n+]([O-])cc1)N1CCC([C@H]2c3ccc(Cl)cc3C=Cc3cc(Br)c[n+]([O-])c32)CC1 [Example 14]
melting point: 109 to 110 °C
FPT percent inhibition ([3]; @ 180 (concentration unit not given)): 25% @ 180

SMILES: O=C(Cc1cc[n+]([O-])cc1)N1CCN([C@H]2c3ccc(Cl)cc3CCc3cc(Br)c[n+]([O-])c32)CC1 [Example 8]
FPT percent inhibition ([3]; @ 170 (concentration unit not given)): 39% @ 170

Reference: patent US6576639B1, “Compounds for the inhibition of farnesyl protein transferase” (Schering Corporation, priority 1997, dated 2003)
